From patent publication US20170298051A1, “ACTIVATOR OF ADIPONECTIN RECEPTOR” (THE UNIVERSITY OF TOKYO, priority 2013, published 2017)

Key:
AdipoR1 [1] = target: T1, AdipoR1 (Mus musculus, UniProt Q91VH1); experiment: Measurement of AMPK phosphorylation ability (Assay 1), differentiated C2C12 cells, Western blotting; format: cell-based; details: 10 μM, 10 minutes
T1 construct: C2C12 cells (ATCC; CRL-1772, medium; host or cells: differentiated C2C12
T1 sequence (Q91VH1 1-375): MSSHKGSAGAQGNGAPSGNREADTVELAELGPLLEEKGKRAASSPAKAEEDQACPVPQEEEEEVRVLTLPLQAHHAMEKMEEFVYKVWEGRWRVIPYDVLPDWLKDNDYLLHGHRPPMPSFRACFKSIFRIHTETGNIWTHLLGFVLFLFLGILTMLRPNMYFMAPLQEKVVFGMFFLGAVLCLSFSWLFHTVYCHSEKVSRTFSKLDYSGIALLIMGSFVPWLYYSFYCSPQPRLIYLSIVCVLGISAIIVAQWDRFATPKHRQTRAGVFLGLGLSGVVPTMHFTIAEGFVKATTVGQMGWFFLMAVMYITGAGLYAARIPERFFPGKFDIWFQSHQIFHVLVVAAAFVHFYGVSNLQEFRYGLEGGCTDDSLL
Experimental: The AMPK phosphorylation ability of the respective compounds according to the present invention was measured by using differentiated C2C12 cells or HEK 293T cells.
C2C12 cells (ATCC; CRL-1772, medium; DMEM, 10% FBS) were cultured in a 12- or 24-well plate until they reached 100% confluency (37° C., 5% CO2).
The medium was changed to 2.5% Horse Serum (HS) and differentiation was started. The medium (DMEM, 2.5% HS) was replaced every three days.
After starvation, a test compound listed in Table 12 (concentration: 10 μM) was added thereto, and after 10 minutes, the medium was discarded and the plate was frozen with liquid nitrogen.
To the 12- or 24-well cell plate which had been frozen was added 100 or 150 μL of Cell lysis buffer pH 7.4 (50 mM HEPES (pH 7.4), 2 mM sodium orthovanadate, 10 mM sodium pyrophosphate, 10 mM NaF, 2 mM EDTA, 2 mM EGTA, 0.1% (v/v) NP-40, 0.2 mM PMSF), and the cells were scraped off with a cell scraper, suspended and transferred into a micro centrifugal tube. And then, the cells were ultrasonically crushed (1 second×3 times) with a sonicator. Centrifugation was performed at 4° C. at 15,000 rpm for 15 minutes, and the supernatant was recovered into a new tube.
To 100 μL of the supernatant was added 25 μL of 5× sample buffer (280 mM Tris-HCl (pH 6.9), 40% glycerol, 10% (3-mercaptoethanol, 13% SDS, a small amount of bromophenol blue) and mixed together. The rest of the supernatant was used for protein quantification, and the protein concentrations were uniformed by adding 1× sample buffer depending on the concentration of each sample.
An electrophoresis chamber was filled with 1× SDS buffer (25 mM Tris-HCl, 250 mM glycine, 0.1% SDS), and the sample was applied to a well of polyacrylamide gel. Electrophoresis was performed until the bromophenol blue in the sample reached to the bottom of the gel.
A filter paper was soaked in 1× Transfer buffer sufficiently, above which the PVDF membrane and the gel after electrophoresis were stacked in this order, and thereabove a filter paper which had been soaked in 1× Transfer buffer sufficiently was further stacked, from which an air was removed and the resultant was set in semi-dry type transfer apparatus and transferred (7V, 35 minutes).
An unnecessary portion of the blotted membrane was cutoff, and the rest was immediately soaked in blocking buffer (5% skimmed milk in Rinse buffer), and shaken at room temperature at 40 rpm for 3 hours.
After blocking, the membrane was transferred into Rinse buffer, and washed at room temperature for 10 minutes while shaking. The membrane was soaked in a primary antibody solution (AMPK alpha Antibody (Cell signaling; #2532) 1/1,000 in Rinse buffer, Phospho-AMPK alpha (Thr172) (40H9) antibody (Cell signaling; #2535) 1/1,000 in Rinse buffer), and shaken at 4° C. at 40 rpm overnight.
The membrane was soaked in a secondary antibody solution (goat anti-rabbit IgG-HRP Antibody (Santa Cruz; sc-2030) 1/2,000 in Rinse buffer), and shaken at room temperature at 40 rpm for 1 hour.
After the membrane was washed for 45 minutes in the same way as after the primary antibody reaction, the membrane was soaked in a chemiluminescent reaction solution (ECL Western Blotting Detection Reagents, GE Healthcare) for about 1 minute. An excess of the reaction solution was removed, and then the membranes were arranged on a transparent film and sandwiched with it, with which an X-ray film was exposed in a darkroom (for about several seconds to 60 seconds) to develop the film.
The X-ray film was scanned to take the image, for which the band was measured by using the image analysis software “Image J” to determine the respective amounts of pAMPK and AMPK.

AdipoR1 [2] = experiment: Measurement of AMPK phosphorylation ability (Assay 2), C2C12 cells with unrelated or AdipoR1 siRNA; format: cell-based, Mouse
Experimental: C2C12 cells (ATCC; CRL-1772, medium; DMEM, 10% Fetal Bovine Serum (FBS)) were cultured in a 12- or 24-well plate until they reached 100% confluency (37° C., 5% CO2). The medium was changed to DMEM, 2.5% Horse Serum (HS) and differentiation was started. The medium (DMEM, 2.5% HS) was replaced two days after the start of differentiation. The medium (DMEM, 2.5% HS) was further replaced two days after that.
On the next day following the replacement of the medium, first, 1 μL of Lipofectamine RNAiMAX and 50 μL of OPTI-MEM were mixed, and then 5 μM siRNA (sense siRNA sequence: […]tt (SEQ ID NO: 1)) and 50 μL of OPTI-MEM were mixed and the resultants were left to stand at room temperature for 5 minutes. And then, the 1 μL Lipofectamine RNAiMAX/50 μL OPTI-MEM and the 5 μM siRNA/50 μL OPTI-MEM were mixed, and the resultant was left to stand at room temperature for 10 minutes, which was added to the cells.
After 5 minutes, the medium (DMEM, 2.5 HS) was replaced, and after starvation on the next day, a test compound listed in Table 12 was added thereto. After 10 minutes, the medium was discarded and the plate was frozen with liquid nitrogen.
The respective amounts of pAMPK and AMPK were determined in the same way as in the above Assay 1.

[3] = tested on: HF diet-induced obese mice; experiment: Oral glucose tolerance test and insulin tolerance in HF diet-induced obese mice; format: in vivo; details: mice, FIG. 7
Experimental: The original Adipor1^+/−/Adipor2^+/− mice (C57BL/6 and 129/Sv mixed background)^a were backcrossed with C57B1/6 mice more than seven times. All experiments in this study were conducted on male littermates.
(§1) Mice were 6-10 week of age at the time of the experiment. They were housed in cages and maintained on a 12 hr light-dark cycle.
(§2) Plasma glucose levels were determined by using a glucose B-test (Wako Pure Chemical Industries). Plasma insulin was measured with an insulin immunoassay (Shibayagi). Plasma NEFAs (Wako Pure Chemical Industries) were assayed by enzymatic methods.
(§3) The oral glucose tolerance test (OGTT) and insulin tolerance test (ITT) were conducted as previously described^a,b with slight modifications. The areas of the glucose and insulin curves were calculated by multiplying the cumulative mean height of the glucose values (1 mg/ml=1 cm) and insulin values (1 ng/ml=1 cm), respectively, by time (60 min=1 cm)^c,a. The insulin resistance index was calculated from the product of the areas of glucose and insulin×10^−2 in the glucose tolerance test. The results are expressed as the percentage of the value respect to control littermates.

Lepr−/− (db/db) mice = experiment: Anti-diabetic effects in db/db mice; format: in vivo; details: intraperitoneal (IP) injection
Experimental: as §1
Male Lepr^−/− (aged 6-10 week) were purchased from Jackson Laboratory. When the mice in the same genotype received different treatments, they were randomly assigned to treatment groups.
as §2, §3

Molecule	pAMPK/AMPK (%) (AdipoR1 [1])	pAMPK/AMPK (ratio) siRNA, AdipoR1 siRNA (AdipoR1 [2])	pAMPK/AMPK (ratio) siRNA, unrelated siRNA (AdipoR1 [2])	glucose intolerance and insulin resistance [3]	plasma glucose level (Lepr−/− (db/db) mice)
COCCNC(=O)c1ccc(OC2CCN(Cc3cc4ccccc4o3)CC2)c(Cl)c1 [No. 473771]	85.03%	2.39 ratio	1.67 ratio		
COCCNC(=O)c1ccc(OC2CCN(Cc3cc(OC)ccc3F)CC2)c(Cl)c1 [No. 274971]	81.64%	2.51 ratio	2.38 ratio		
COc1ccc(C(=O)N2CCN(Cc3ccc(C(F)(F)F)cc3)CC2)cc1OC [No. 191294]	89.56%	3.54 ratio	3.25 ratio		
COc1ccc(CN2CC[C@@]2(C)C(=O)NC2CCN(Cc3ccccc3)CC2)c2ccccc12 [No. 168198]	84.85%	2.97 ratio	4.53 ratio		
COCCNC(=O)c1ccc(OC2CCN(Cc3cccc4nonc34)CC2)c(Cl)c1 [No. 484140]	81.88%	2.30 ratio	2.34 ratio		
COc1ccc(CN2CCN(C(=O)CCNC(=O)c3ccc(C(C)(C)C)cc3)CC2)cc1C [No. 183665]	99.03%	2.83 ratio	2.88 ratio		
O=C(NC1CCCC1)c1ccc(OC2CCN(Cc3ccoc3)CC2)c(Cl)c1 [No. 268508]	80.12%	2.87 ratio	2.58 ratio		
COCCNC(=O)c1ccc(OC2CCN(Cc3ccc(C)s3)CC2)c(Cl)c1 [No. 197372]	85.37%	1.96 ratio	1.78 ratio		
CC#CCN(Cc1ccco1)C(=O)c1ccc(OC2CCN(Cc3ccccn3)CC2)cc1 [No. 272350]	84.20%	2.54 ratio	2.03 ratio		
COc1ccc(CN2CCN(C(=O)CCNC(=O)c3ccc(C(C)(C)C)cc3)CC2)cc1 [Compound 74, 4-tert-butyl-N-(3-{4-[(4-methoxyphenyl)methyl]piperazin-1-yl}-3-oxopropyl) benzamide]	86.43%	2.07 ratio	3.70 ratio	could improve glucose intolerance as well as insulin resistance	
COc1ccccc1CN1CCC(Oc2ccc(C(=O)NC3CCCC3)cc2Cl)CC1 [No. 272299]	91.22%	2.60 ratio	2.83 ratio		
CCc1ccc(CN2CCC(Oc3ccc(C(=O)NCCOC)cc3Cl)CC2)cc1 [No. 466151]	89.26%	1.94 ratio	2.22 ratio		
CC(C)(C)CN1CCC(Oc2ccc(C(=O)NCCc3ccncc3)cc2Cl)CC1 [No. 200737]	83.71%	2.68 ratio	2.13 ratio		
adiponectin: antidiabetic and antiatherogenic adipokine; mouse full-length adiponectin was generated as previously described (protein, UniProt Q60994 1-247, looked up, full-length, antidiabetic and antiatherogenic adipokine; mouse full-length adiponectin was generated as previously described) MLLLQALLFLLILPSHAEDDVTTTEELAPALVPPPKGTCAGWMAGIPGHPGHNGTPGRDGRDGTPGEKGEKGDAGLLGPKGETGDVGMTGAEGPRGFPGTPGRKGEPGEAAYVYRSAFSVGLETRVTVPNVPIRFTKIFYNQQNHYDGSTGKFYCNIPGLYYFSYHITVYMKDVKVSLFKKDKAVLFTYDQYQEKNVDQASGSVLLHLEVGDQVWLQVYGDGDHNGLYADNVNDSTFTGFLLYHDTN					decreased plasma glucose level
